Values after ≈ are worked out from the molar mass of the structure shown. Like-named read-outs stand apart in the source and are kept apart here.
Legend:
P. aeruginosa ATCC 27853 = assay: Minimum inhibitory concentration (MIC), microplate dilution; format: cell-based; conditions: Pseudomonas aeruginosa, ATCC27853; Table I; Mueller-Hinton medium, 37° C., 24 h
Experimental: (§1) A positive control (1940 μl of culture medium+40 μl of DMSO+20 μl of the bacterial suspension) from a defrosted biological strain (the preservation of the biological strains is carried out at −80° C. in glycerol). The strains used are S. aureus ATCC 25923, E. coli ATCC 25922, P. aeruginosa ATCC 27853, C. albicans CIP 1180-79 and E. faecalis CIP 103015.
(§2) The microorganisms were handled under a hood in the laboratory of L2 type and, before any handling operation, a UV cycle was programmed and only sterile material was used. […] The chemical molecules to be tested were prepared in a DMSO/methanol (50/50) mixture at a concentration of 5 mg/ml.
(§3) After incubating for 24 h, the optical density was measured using a spectrophotometer at 600 nm by withdrawing 100 μl of the bacterial suspension diluted in 900 μl of the sterile culture medium. This test required the use of a 96-well plate and the necessary volume of the microbial suspension to be inoculated was calculated for an OD corresponding to a value equal to 0.01 in each well. In this plate, the first line corresponded to the negative control (195 μl of sterile culture medium in each well), the second line to the positive control (inoculated culture medium with the addition of 2% of DMSO), the third line was charged twice with bacterial suspension, 8 μl of product to be tested was placed in each well. Subsequently, cascade half dilution was carried out starting from this line.
(§4) The first column was used as inhibition control. A sterile filter was subsequently placed on the microplate, allowing the passage of gases but not of contaminants. The microplate was incubated at 37° C. in a humid atmosphere for 24 h.
(§5) NB: The medium used is the Mueller-Hinton (MH) medium for the bacteria. All the tests were carried out in duplicate.
(§6) After incubation, the filter was replaced with a transparent film and subsequently reading of OD was carried out in an IEMS plate spectrophotometer at 620 nm. A calculation of the minimum inhibitory concentration (MIC) was carried out.

S. aureus ATCC 25923 = assay: as above; format: cell-based; conditions: Staphylococcus aureus, ATCC25923; Table I; Mueller-Hinton medium, 37° C., 24 h
Experimental: as §1, §2, §3, §4, §5, §6

CHO-K1 cells = assay: WST-1 cytotoxicity test; format: cell-based, Chinese hamster; conditions: Cricetulus griseus, WST-1 test, 24 hours, concentration reducing cell viability by 50%
Experimental: The WST-1 test was used to measure the cytotoxic activity of the products. This is a colorimetric test which makes it possible to measure the viability and the degree of cell proliferation.
The WST-1 test was carried out on Chinese hamster ovary cells. The CHO-K1 cells (ATCC, USA) are kept cultured in McCoy's 5 A medium additivated with 10% of fetal calf serum, with 2 mM of L-glutamine and with a penicillin/streptomycin mixture (100 U/ml: 10 μg/ml). Incubating is carried out at 37° C. under an atmosphere enriched in CO2 (5%) and subculturing is carried out every two days.
The cells are transferred into 96-well plates (25 000 cells/ml) in complete McCoy's 5 A medium and are maintained at 37° C. for 24 h under a humid atmosphere enriched in CO2 (5%). Increasing concentrations of test products are added to the wells in duplicate tests and 8 growth controls containing the cells in the medium alone are included in each series of tests. After 24 hours at 37° C. (5% of CO2), the culture medium is removed, the cells are rinsed in phosphate buffer (PBS) and 50 μl of PBS containing 10% of WST-1 reactant are added to each well. After incubating at 37° C. for 20 minutes, the results are read by spectrophotometry at 450 nm.
The results are expressed in the form of dose-response relationships, modeled by a nonlinear regression analysis using the TableCurve software.

S. faecalis = assay: Minimum inhibitory concentration (MIC), microplate dilution; format: cell-based, E. faecalis CIP 103015; conditions: Enterococcus faecalis; Table I; Mueller-Hinton medium, 37° C., 24 h
Experimental: as §1, §2, §3, §4, §5, §6

C. albicans = assay: as above; format: cell-based, C. albicans CIP 1180-79; conditions: Candida albicans; Table I; 37° C., 24 h
Experimental: as §1, §2, §3, §4, §5, §6

E. coli ATCC 25922 = assay: as above; format: cell-based; conditions: Escherichia coli, ATCC25922
Experimental: (§7) A positive control (1940 μl of culture medium+40 μl of DMSO+20 μl of the bacterial suspension) from a defrosted biological strain (the preservation of the biological strains is carried out at −80° C. in glycerol).
as §2, §3, §4, §5, §6

[1] = system: S. aureus Methicillin-resistant; assay: as above; format: cell-based; conditions: Staphylococcus aureus
Experimental: as §7, §2, §3, §4, §5, §6

P. aeruginosa (PAO1) [2] = assay: MIC of conventional antibiotics alone; format: cell-based; conditions: Pseudomonas aeruginosa; antibiotic alone, Gram-negative strain of P. aeruginosa (PAO1); read-out: MIC
P. aeruginosa (PAO1) [3] = assay: Potentiating of doxycycline activity by aminosteroidal derivative; format: cell-based, Pseudomonas aeruginosa; conditions: Doxycycline concentration used 2 μg/ml, 37° C., 24 h
Experimental: (§8) This method requires the use of a 96-well plate; 100 μl of a liquid culture medium are deposited in each well and then inoculated with the microbial suspension prepared above. The necessary volume to be inoculated is calculated for an OD of 0.01, which corresponds to approximately 5×10^6 bacteria in each well. In this plate, the first line corresponds to a negative control (200 μl of sterile culture medium in each well), the second line to a positive control (100 μl of sterile culture medium+100 μl of a bacterial suspension), the third line contains 192 μl of culture medium; 8 μl of aminosteroidal product to be tested are placed in each well. Subsequently, cascade dilution is carried out starting from this line. 8 μl of a doxycycline solution (1 mg dissolved in 20 ml) are subsequently added to each well of lines 3 to 8, in order to obtain a final concentration of antibiotic of 2 μg/ml. 92 μl of bacterial suspension are subsequently added to lines 3 to 8. The results (the determination of the MIC (2 μg/ml of doxycycline) in the presence of X μg/ml of aminosteroidal derivative) are read after incubating at 37° C. for 24 h in a humid atmosphere. After incubating at 37° C. for 24 h, 40 μl of nitrotetrazolium iodide are added to each well, making it possible to reveal the presence of living bacteria by coloring the medium pink.
(§9) The use of low amounts of aminosteroidal derivatives makes it possible to restore (to reduce) the necessary concentration of antibiotic to kill the strain under consideration.

P. aeruginosa (PAO1) [4] = assay: Potentiating of chloramphenicol activity by aminosteroidal derivative; format: cell-based, Pseudomonas aeruginosa; conditions: Chloramphenicol concentration used 4 μg/ml
Experimental: as §8, with “8 μl of a doxycycline solution (1 mg dissolved in 20 ml) are subsequently added to each well of lines 3 to 8, in order to obtain a final concentration of antibiotic of 2 μg/ml.” left out, “The results (the determination of the MIC (2 μg/ml of doxycycline) in the presence of X μg/ml of aminosteroidal derivative) are read after incubating at 37° C. for 24 h in a humid atmosphere.” left out
as §9

[5] = Table I, Mueller-Hinton medium, 37° C., 24 h, read-out: MIC E. coli ATCC 25922
[6] = Table II, comparison with state of the art compounds, read-out: MIC E. coli
[7] = Table I, Mueller-Hinton medium, 37° C., 24 h
[8] = Table II, comparison with state of the art compounds

| SMILES | MIC (P. aeruginosa ATCC 27853) [µg/mL] | MIC (S. aureus ATCC 25923) [µg/mL] | IC50 (CHO-K1 cells) [µM] | MIC (S. faecalis) [µg/mL] | MIC (C. albicans) [µg/mL] | MIC (E. coli ATCC 25922; [5]) [µg/mL] | MIC (E. coli ATCC 25922; [6]) [µg/mL] | MIC [1, 7] [µg/mL] | MIC [1, 8] [µg/mL] | MIC (P. aeruginosa (PAO1) [2]) [µg/mL] | Concentration of compound necessary in order to restore the activity of the antibiotic under consideration: Doxycycline (P. aeruginosa (PAO1) [3]) [µg/mL] | Concentration of compound necessary in order to restore the activity of the antibiotic under consideration: Chloramphenicol (P. aeruginosa (PAO1) [4]) [µg/mL] |
| --- | --- | --- | --- | --- | --- | --- | --- | --- | --- | --- | --- | --- |
| CC(C)CCC[C@@H](C)[C@H]1CCC2C3C(CC[C@@]21C)[C@@]1(C)CC[C@H](NCCCCN)C[C@@H]1C[C@H]3O (stereo partly drawn) [SA-5, 3β-(1,4-Diaminobutane)-7β-hydroxy-5α-cholestane] | 32 (≈ 67.4 µM) | 4 (≈ 8.42 µM) | 15 | 4 (≈ 8.42 µM) | 4 (≈ 8.42 µM) | 32 (≈ 67.4 µM) | 32 (≈ 67.4 µM) | 4 (≈ 8.42 µM) | 4 (≈ 8.42 µM) |  |  |  |
| C[C@H]1c2cccc(O)c2C(=O)C2=C(O)[C@]3(O)C(=O)C(C(N)=O)=C(O)[C@@H](N(C)C)[C@@H]3[C@@H](O)[C@@H]21 [doxycycline] |  |  |  |  |  |  |  |  |  | 40 |  |  |
| CC(C)CCC[C@@H](C)[C@H]1CCC2C3C(CC[C@@]21C)[C@@]1(C)CC[C@H](NCCN(CCN)CCN)C[C@@H]1C[C@H]3O (stereo partly drawn) [SA-6, 3β-(Tris(2-aminoethyl)amine)-7β-hydroxy-5α-cholestane] | 40 (≈ 75.1 µM) | 5 (≈ 9.38 µM) | 46 | 2.5 (≈ 4.69 µM) | 2.5 (≈ 4.69 µM) | 20 (≈ 37.5 µM) | 20 (≈ 37.5 µM) | 5 (≈ 9.38 µM) | 5 (≈ 9.38 µM) |  | 2.5 | 20 |
| CC(C)CCC[C@@H](C)[C@H]1CCC2C3C(CC[C@@]21C)[C@@]1(C)CC[C@H](NCCCN)C[C@@H]1C[C@H]3O (stereo partly drawn) [SA-4, 3β-(1,3-Diaminopropane)-7β-hydroxy-5α-cholestane] | 32 (≈ 69.4 µM) | 4 (≈ 8.68 µM) | 9 | 2 (≈ 4.34 µM) | 2 (≈ 4.34 µM) | 32 (≈ 69.4 µM) | 32 (≈ 69.4 µM) | 2 (≈ 4.34 µM) | 2 (≈ 4.34 µM) |  |  |  |
| CC(C)CCC[C@@H](C)[C@H]1CCC2C3C(CC[C@@]21C)[C@@]1(C)CC[C@H](NCCCNCCCCNCCCN)C[C@@H]1C[C@H]3O (stereo partly drawn) [SA-1, 3β-Spermino-7α-hydroxy-5α-cholestane] | 32 (≈ 54.3 µM) | 4 (≈ 6.79 µM) | 15 | 2 (≈ 3.4 µM) | 2 (≈ 3.4 µM) | 16 (≈ 27.2 µM) | 16 (≈ 27.2 µM) | 2 (≈ 3.4 µM) | 2 (≈ 3.4 µM) |  | 4 | 16 |
